From patent publication US12186290B2, “Methods for the treatment of glioblastoma multiforme” (priority 2017, dated 2025)

Assay: solubility in water
Assay type: physicochemical

NC(=O)C(CCC(=O)[O-])NC(=O)Cc1ccccc1.[Na+] (stereo not shown) [Iso-PG, phenylacetylisoglutaminate sodium]
solubility in water: soluble in water
